The source made the active and inactive calls. No cut-off for these calls is given here.
What was measured:
[1] = organism: Homo sapiens; assay: Covalent binding affinity to Spl2/Rab27A C123 mutant fusion protein (unknown origin) assessed as half-life of adduct formation by measuring protein mass shift after 8 hrs by intact-protein mass spectrometry
[2] = organism: Homo sapiens; assay: Covalent binding affinity to Spl2/Rab27A C188 mutant fusion protein (unknown origin) assessed as half-life of adduct formation by measuring protein mass shift after 24 hrs by intact-protein mass spectrometry

Activity [1] | Activity [2] | SMILES
Active | Active | C=CC(=O)Nc1nc2ccccc2n1CCc1ccccn1
 | Active | C=CC(=O)N1CCC[C@H]1c1ccc(OC)cc1

From ChEMBL document CHEMBL5104105, “Identification of the first structurally validated covalent ligands of the small GTPase RAB27A” (RSC Med Chem, 2022)
